Experimental data from patent publication US20250230193A1, “CYCLIC COMPOUND HAVING SELECTIVE KRAS INHIBITORY EFFECT ON HRAS AND NRAS” (CHUGAI SEIYAKU KABUSHIKI KAISHA, priority 2022, published 2025).

Tests used:
[1] = target: GDP-bound NRAS wild-type protein (Homo sapiens, UniProt P01111); test: Binding to NRAS by surface plasmon resonance (SPR), Single Cycle Kinetics; conditions: for NRAS/KRAS (ratio of KD value with respect to NRAS to KD value with respect to KRAS): GDP-bound NRAS wild-type vs GDP-bound KRAS wild-type
Chain of GDP-bound NRAS wild-type protein (P01111 whole entry): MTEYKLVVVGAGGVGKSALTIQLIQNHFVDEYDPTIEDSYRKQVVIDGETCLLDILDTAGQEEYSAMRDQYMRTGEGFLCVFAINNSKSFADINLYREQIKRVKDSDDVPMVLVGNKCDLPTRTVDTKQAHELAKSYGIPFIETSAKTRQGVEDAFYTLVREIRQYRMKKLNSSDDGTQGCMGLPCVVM

[2] = target: GDP-bound HRAS wild-type protein (Homo sapiens, UniProt P01112); test: Binding to HRAS by surface plasmon resonance (SPR), Single Cycle Kinetics; conditions: for HRAS/KRAS (ratio of KD value with respect to HRAS to KD value with respect to KRAS): GDP-bound HRAS wild-type vs GDP-bound KRAS wild-type
Chain of GDP-bound HRAS wild-type protein (P01112 whole entry): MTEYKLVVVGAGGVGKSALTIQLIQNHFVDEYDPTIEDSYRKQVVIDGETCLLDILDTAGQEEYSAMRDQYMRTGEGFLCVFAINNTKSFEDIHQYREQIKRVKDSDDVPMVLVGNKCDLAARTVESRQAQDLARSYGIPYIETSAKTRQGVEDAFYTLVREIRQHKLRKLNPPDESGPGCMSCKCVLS

[3] = SPR, GDP-bound wild-type proteins

SMILES: CCO[C@@H]1C[C@H]2C(=O)NC3(CCC3)C(=O)N(C)[C@@H](C3CCCC3)C(=O)N(CCc3ccccc3)[C@H](C(=O)N(C)C)CC(=O)N(C)[C@@H](CC)C(=O)N[C@@H]([C@@H](C)CC)C(=O)N(C)CC(=O)N(C)[C@H]3CCCCCN(C3=O)[C@@H](Cc3ccc(C(F)(F)F)cc3)C(=O)N(C)CC(=O)N[C@@H](CCc3cc(F)c(C(F)(F)F)c(F)c3)C(=O)N2C1 [PP0637]
- NRAS/KRAS (ratio of KD value with respect to GDP-bound NRAS wild-type protein to KD value with respect to KRAS) ([1]; SPR): B (a compound having 3 or more and less than 10 is denoted as B)
- HRAS/KRAS (ratio of KD value with respect to GDP-bound HRAS wild-type protein to KD value with respect to KRAS) ([2]; SPR): B (a compound having 3 or more and less than 10 is denoted as B)

SMILES: CCO[C@@H]1C[C@H]2C(=O)NC3(CCCC3)C(=O)N(C)[C@@H](C3CCCC3)C(=O)N(C)[C@H](C(=O)N(C)C)CC(=O)N(C)[C@@H](CC(C)C)C(=O)N[C@@H]([C@@H](C)CC)C(=O)N(C)CC(=O)N(C)[C@H]3CC(C)=CCN(C3=O)[C@@H](Cc3ccc(C(F)(F)F)cc3)C(=O)N(C)CC(=O)N[C@@H](CCc3cc(F)c(C(F)(F)F)c(F)c3)C(=O)N2C1 [PP1031]
- NRAS/KRAS (ratio of KD value with respect to NRAS to KD value with respect to KRAS) ([1]; SPR): C (A compound having a KD ratio of 0.1 or more and less than 3 is denoted as C)
- HRAS/KRAS (ratio of KD value with respect to HRAS to KD value with respect to KRAS) ([2]; SPR): C (A compound having a KD ratio of 0.1 or more and less than 3 is denoted as C)

SMILES: C=CCC[C@H]1C(=O)N[C@@H]([C@@H](C)CC)C(=O)N(C)CC(=O)N(C)[C@H]2CCCCN(C2=O)[C@@H](Cc2ccc(C(F)(F)F)cc2)C(=O)N(C)CC(=O)N[C@@H](CCc2cc(F)c(C(F)(F)F)c(F)c2)C(=O)N2C[C@H](OCC)C[C@H]2C(=O)N[C@](C)(CC=C)C(=O)N(C)[C@@H](C2CCCC2)C(=O)N(C)[C@H](C(=O)N2CCOCC2)CC(=O)N1C [PP0875]
- NRAS/KRAS (ratio of KD value with respect to NRAS to KD value with respect to KRAS) ([1]; SPR): C (A compound having a KD ratio of 0.1 or more and less than 3 is denoted as C)
- HRAS/KRAS (ratio of KD value with respect to HRAS to KD value with respect to KRAS) ([2]; SPR): B (a compound having 3 or more and less than 10 is denoted as B)

SMILES: CC[C@H](C)[C@@H]1NC(=O)[C@H](COC)N(C)C(=O)C[C@@H](C(=O)N(C)C)N(C)C(=O)[C@H](C2CCCCC2)N(C)C(=O)C2(CC(C)(C)C2)NC(=O)[C@@H]2C[C@@H](OC(C)C)CN2C(=O)[C@H](CCc2ccc(Cl)c(Cl)c2)NC(=O)CN(C)C(=O)[C@H](Cc2ccc(C(F)(F)F)cc2)N2CC/C=C\C[C@@H](C2=O)N(C)C(=O)CN(C)C1=O [PP2662]
- NRAS/KRAS (ratio of KD value with respect to GDP-bound NRAS wild-type protein to KD value with respect to KRAS) ([1]; class symbols): AA (a compound having 20 or more is denoted as AA)
- HRAS/KRAS (ratio of KD value with respect to GDP-bound HRAS wild-type protein to KD value with respect to KRAS) ([2]; class symbols): A (a compound having 10 or more and less than 20 is denoted as A)

SMILES: CCO[C@@H]1C[C@H]2C(=O)NC3(CC(C)(C)C3)C(=O)N(C)[C@@H](C(CC)CC)C(=O)N(C)[C@H](C(=O)N(C)C)CC(=O)N(C)[C@H]3CCCC/C=C/c4ccc(cc4)C[C@@H](C(=O)N(C)CC(=O)N[C@@H](CCc4ccc(Cl)c(Cl)c4)C(=O)N2C1)N1CC/C=C\C[C@@H](C1=O)N(C)C(=O)CN(C)C(=O)[C@H]([C@@H](C)CC)NC3=O [PP3045]
- NRAS/KRAS (ratio of KD value with respect to GDP-bound NRAS wild-type protein to KD value with respect to KRAS) [1, 3]: AA (a compound having 20 or more is denoted as AA)
- HRAS/KRAS (ratio of KD value with respect to GDP-bound HRAS wild-type protein to KD value with respect to KRAS) [2, 3]: A (a compound having 10 or more and less than 20 is denoted as A)

SMILES: CCOC[C@H]1C(=O)N[C@@H]([C@@H](C)CC)C(=O)N(C2CC2)CC(=O)N(C)[C@H]2C/C=C\CCN(C2=O)[C@@H](Cc2ccc(C)cc2)C(=O)N(C)CC(=O)N[C@@H](CCc2cc(F)c(C(F)(F)F)c(F)c2)C(=O)N2C[C@H](OCC)C[C@H]2C(=O)NC2(CC(C)(C)C2)C(=O)N(C)[C@@H](CC(C)(C)C)C(=O)N(C)[C@H](C(=O)N(C)C)CC(=O)N1C [PP2720]
- NRAS/KRAS (ratio of KD value with respect to GDP-bound NRAS wild-type protein to KD value with respect to KRAS) ([1]; class symbols): A (a compound having 10 or more and less than 20 is denoted as A)
- HRAS/KRAS (ratio of KD value with respect to GDP-bound HRAS wild-type protein to KD value with respect to KRAS) ([2]; class symbols): A (a compound having 10 or more and less than 20 is denoted as A)

SMILES: CCO[C@@H]1C[C@H]2C(=O)NC3(CCC3)C(=O)N(C)[C@@H](C3CCCC3)C(=O)N(C)[C@H](C(=O)N3C4CCC3COC4)CC(=O)N(C)[C@@H](CC)C(=O)N[C@@H]([C@@H](C)CC)C(=O)N(C)CC(=O)N(C)[C@H]3C/C=C\CCN(C3=O)[C@@H](Cc3ccc(C(F)(F)F)cc3)C(=O)N(C)CC(=O)N[C@@H](CCc3cc(F)c(C(F)(F)F)c(F)c3)C(=O)N2C1 [PP1093]
- NRAS/KRAS (ratio of KD value with respect to NRAS to KD value with respect to KRAS) ([1]; SPR): AA (a compound having 20 or more is denoted as AA)
- HRAS/KRAS (ratio of KD value with respect to HRAS to KD value with respect to KRAS) ([2]; SPR): A (a compound having 10 or more and less than 20 is denoted as A)
